According to the supplement of paper PMC10307832:

Legend:
Experiment in all cases: relative viability (nuclei count vs DMSO), 5 days (fraction); higher = more cells survive
NCI-H1915 = tested on: NCI-H1915
Procedure, shortened: (§1)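 Relative viability equals treated-well nuclei counts divided by vehicle-well nuclei counts. Counts came from 4× images of lung cancer cell lines grown in 1536-well plates for 5 days after pin-tool dosing on the day after seeding. Dosing used one drug alone or a fixed anchor-drug dose plus five library-drug doses (not always all listed) in √10 steps, and values are medians of duplicate plates.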

NCI-H2347 = tested on: NCI-H2347
Procedure, shortened: as §1

NCI-H1437 = tested on: NCI-H1437
Procedure, shortened: as §1

NCI-H1755 = tested on: NCI-H1755
Procedure, shortened: as §1

NCI-H1944 = tested on: NCI-H1944
Procedure, shortened: as §1

NCI-H1793 = tested on: NCI-H1793
Procedure, shortened: as §1

LXF-289 = tested on: LXF-289
Procedure, shortened: as §1

NCI-H1395 = tested on: NCI-H1395
Procedure, shortened: as §1

CAL-12T = tested on: CAL-12T
Procedure, shortened: as §1

EMC-BAC-2 = tested on: EMC-BAC-2
Procedure, shortened: as §1

NCI-H1651 = tested on: NCI-H1651
Procedure, shortened: as §1

H3255 = tested on: H3255
Procedure, shortened: as §1

NCI-H2087 = tested on: NCI-H2087
Procedure, shortened: as §1

LC-2-ad = tested on: LC-2-ad
Procedure, shortened: as §1

NCI-H2085 = tested on: NCI-H2085
Procedure, shortened: as §1

LK-2 = tested on: LK-2
Procedure, shortened: as §1

EKVX = tested on: EKVX
Procedure, shortened: as §1

PC-3 [JPC-3] = tested on: PC-3 [JPC-3]
Procedure, shortened: as §1

O=c1[nH]c2ccccc2n1C1CCN(CCCC(c2ccc(F)cc2)c2ccc(F)cc2)CC1 [Pimozide] + NC(=O)Nc1cc(-c2cccc(F)c2)sc1C(=O)N[C@H]1CCCNC1 [AZD7762] (partner 0.2 µM)
relative viability (NCI-H1915; first compound 0.08 µM): 0.661 | relative viability (NCI-H1915; first compound 0.253 µM): 0.61 | relative viability (NCI-H1915; first compound 2.53 µM): 0.674 | relative viability (NCI-H1915; first compound 8 µM): 0.718 | relative viability (NCI-H2347; first compound 0.08 µM): 0.782 | relative viability (NCI-H2347; first compound 0.253 µM): 0.689 | relative viability (NCI-H2347; first compound 0.8 µM): 0.723 | relative viability (NCI-H2347; first compound 2.53 µM): 0.736 | relative viability (NCI-H2347; first compound 8 µM): 0.744 | relative viability (NCI-H1437; first compound 0.08 µM): 1.14 | relative viability (NCI-H1437; first compound 0.253 µM): 1.09 | relative viability (NCI-H1437; first compound 0.8 µM): 1.03 | relative viability (NCI-H1437; first compound 2.53 µM): 1.05 | relative viability (NCI-H1437; first compound 8 µM): 1.09 | relative viability (NCI-H1755; first compound 0.08 µM): 0.727 | relative viability (NCI-H1755; first compound 0.253 µM): 0.42 | relative viability (NCI-H1755; first compound 0.8 µM): 0.47 | relative viability (NCI-H1755; first compound 2.53 µM): 0.533 | relative viability (NCI-H1755; first compound 8 µM): 0.46 | relative viability (NCI-H1944; first compound 0.08 µM): 0.659 | relative viability (NCI-H1944; first compound 2.53 µM): 0.443 | relative viability (NCI-H1944; first compound 8 µM): 0.524 | relative viability (NCI-H1793; first compound 0.08 µM): 0.553 | relative viability (NCI-H1793; first compound 0.253 µM): 0.36 | relative viability (NCI-H1793; first compound 0.8 µM): 0.352 | relative viability (NCI-H1793; first compound 2.53 µM): 0.263 | relative viability (NCI-H1793; first compound 8 µM): 0.28 | relative viability (LXF-289; first compound 0.08 µM): 1.07 | relative viability (LXF-289; first compound 0.253 µM): 1.1 | relative viability (LXF-289; first compound 0.8 µM): 1.08 | relative viability (LXF-289; first compound 2.53 µM): 1.13 | relative viability (LXF-289; first compound 8 µM): 0.962 | relative viability (NCI-H1395; first compound 0.08 µM): 0.369 | relative viability (NCI-H1395; first compound 0.253 µM): 0.42 | relative viability (NCI-H1395; first compound 0.8 µM): 0.417 | relative viability (NCI-H1395; first compound 2.53 µM): 0.389 | relative viability (NCI-H1395; first compound 8 µM): 0.394 | relative viability (CAL-12T; first compound 0.08 µM): 0.64 | relative viability (CAL-12T; first compound 0.253 µM): 0.587 | relative viability (CAL-12T; first compound 0.8 µM): 0.539 | relative viability (CAL-12T; first compound 2.53 µM): 0.511 | relative viability (CAL-12T; first compound 8 µM): 0.587 | relative viability (EMC-BAC-2; first compound 0.08 µM): 1.06 | relative viability (EMC-BAC-2; first compound 0.253 µM): 1.03 | relative viability (EMC-BAC-2; first compound 0.8 µM): 1 | relative viability (EMC-BAC-2; first compound 2.53 µM): 1.09 | relative viability (EMC-BAC-2; first compound 8 µM): 1 | relative viability (NCI-H1651; first compound 0.08 µM): 0.453 | relative viability (NCI-H1651; first compound 0.253 µM): 0.423 | relative viability (NCI-H1651; first compound 0.8 µM): 0.41 | relative viability (NCI-H1651; first compound 2.53 µM): 0.433 | relative viability (NCI-H1651; first compound 8 µM): 0.469 | relative viability (H3255; first compound 0.253 µM): 0.858 | relative viability (H3255; first compound 0.8 µM): 0.777 | relative viability (H3255; first compound 2.53 µM): 0.838 | relative viability (H3255; first compound 8 µM): 0.879 | relative viability (NCI-H2087; first compound 0.08 µM): 1.27 | relative viability (NCI-H2087; first compound 0.253 µM): 1.31 | relative viability (NCI-H2087; first compound 2.53 µM): 1.22 | relative viability (NCI-H2087; first compound 8 µM): 1.25 | relative viability (LC-2-ad; first compound 0.08 µM): 0.78 | relative viability (LC-2-ad; first compound 0.253 µM): 0.794 | relative viability (LC-2-ad; first compound 0.8 µM): 0.736 | relative viability (LC-2-ad; first compound 2.53 µM): 0.812 | relative viability (LC-2-ad; first compound 8 µM): 0.798 | relative viability (NCI-H2085; first compound 0.08 µM): 0.937 | relative viability (NCI-H2085; first compound 0.253 µM): 0.971 | relative viability (NCI-H2085; first compound 0.8 µM): 0.922 | relative viability (NCI-H2085; first compound 2.53 µM): 1.07 | relative viability (NCI-H2085; first compound 8 µM): 0.953 | relative viability (LK-2; first compound 0.08 µM): 0.539 | relative viability (LK-2; first compound 0.253 µM): 0.438 | relative viability (LK-2; first compound 0.8 µM): 0.376 | relative viability (LK-2; first compound 8 µM): 0.417 | relative viability (EKVX; first compound 0.253 µM): 0.711 | relative viability (EKVX; first compound 0.8 µM): 0.618 | relative viability (EKVX; first compound 2.53 µM): 0.749 | relative viability (EKVX; first compound 8 µM): 0.592 | relative viability (PC-3 [JPC-3]; first compound 0.253 µM): 0.719 | relative viability (PC-3 [JPC-3]; first compound 0.8 µM): 0.72 | relative viability (PC-3 [JPC-3]; first compound 2.53 µM): 0.832 | relative viability (PC-3 [JPC-3]; first compound 8 µM): 0.751
